According to ChEMBL document CHEMBL1137055, “Pyrazolo[1,5-a]pyrimidines as estrogen receptor ligands: defining the orientation of a novel heterocyclic core” (Bioorg Med Chem Lett, 2004):

Columns and labels:
[1] = molecular target: Estrogen receptor beta (Homo sapiens) (UniProt Q92731); assay: Binding affinity for Estrogen receptor beta compared to estradiol (100%)
[2] = molecular target: T1, Estrogen receptor (Homo sapiens) (UniProt P03372); assay: Binding affinity for Estrogen receptor alpha compared to estradiol (100%)
T1 sequence (whole entry): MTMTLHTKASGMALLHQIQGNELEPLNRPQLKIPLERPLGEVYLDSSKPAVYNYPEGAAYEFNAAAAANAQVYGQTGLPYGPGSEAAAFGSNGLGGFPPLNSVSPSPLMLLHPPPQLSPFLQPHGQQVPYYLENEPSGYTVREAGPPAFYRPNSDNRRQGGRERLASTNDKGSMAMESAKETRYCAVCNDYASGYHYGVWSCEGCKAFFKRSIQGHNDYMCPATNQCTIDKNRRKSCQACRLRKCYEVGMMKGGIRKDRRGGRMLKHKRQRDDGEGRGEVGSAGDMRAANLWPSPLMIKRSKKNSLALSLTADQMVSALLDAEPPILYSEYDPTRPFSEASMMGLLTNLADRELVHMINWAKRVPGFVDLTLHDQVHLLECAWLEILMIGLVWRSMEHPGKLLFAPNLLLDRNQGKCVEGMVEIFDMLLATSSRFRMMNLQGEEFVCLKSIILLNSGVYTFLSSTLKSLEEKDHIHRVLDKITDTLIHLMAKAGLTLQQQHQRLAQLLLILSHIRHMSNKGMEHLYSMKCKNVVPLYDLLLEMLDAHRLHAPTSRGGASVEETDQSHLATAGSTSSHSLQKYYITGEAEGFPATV

Sequence of Estrogen receptor beta (Homo sapiens) (Q92731 whole entry): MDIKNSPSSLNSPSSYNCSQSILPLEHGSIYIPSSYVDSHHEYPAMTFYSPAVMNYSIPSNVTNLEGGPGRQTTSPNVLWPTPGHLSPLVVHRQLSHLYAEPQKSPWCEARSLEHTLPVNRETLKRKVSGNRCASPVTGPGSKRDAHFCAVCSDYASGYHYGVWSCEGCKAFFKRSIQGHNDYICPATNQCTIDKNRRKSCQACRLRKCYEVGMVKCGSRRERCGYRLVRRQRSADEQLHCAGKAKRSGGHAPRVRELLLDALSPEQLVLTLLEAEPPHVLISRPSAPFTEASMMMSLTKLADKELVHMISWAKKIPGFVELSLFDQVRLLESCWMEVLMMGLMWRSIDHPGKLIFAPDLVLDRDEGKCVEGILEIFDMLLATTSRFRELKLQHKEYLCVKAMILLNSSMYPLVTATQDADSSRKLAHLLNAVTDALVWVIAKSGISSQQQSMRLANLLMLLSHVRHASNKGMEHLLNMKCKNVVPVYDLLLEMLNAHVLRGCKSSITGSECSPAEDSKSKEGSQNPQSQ

| SMILES | Binding affinity [1] [%] | Binding affinity [2] [%] |
| --- | --- | --- |
| Oc1ccc(-c2c(-c3ccccc3)nn3cccnc23)cc1 | 0.02 | 0.007 |
| Oc1cnc2c(-c3ccccc3)c(-c3ccccc3)nn2c1 | 0.005 |  |
| Oc1ccc(-c2nn3cccnc3c2-c2ccc(O)cc2)cc1 | 0.1 | 0.004 |

More lines, now with the values ahead:

| Binding affinity [1] [%] | Binding affinity [2] [%] | SMILES |
| --- | --- | --- |
| 0.03 | 0.004 | Oc1ccc(-c2nn3cc(O)cnc3c2-c2ccc(O)cc2)cc1 |
| 0.01 | 0.003 | Oc1ccc(-c2nn3cc(O)cnc3c2-c2ccccc2)cc1 |
| 0.05 | 0.01 | Oc1ccc(-c2nn3cccnc3c2-c2ccccc2)cc1 |
| 0.006 |  | Oc1ccc(-c2c(-c3ccccc3)nn3cc(O)cnc23)cc1 |
